Source: patent US7507760B2, “N-type calcium channel blockers” (Neuromed Pharmaceuticals Ltd., priority 2004, dated 2009)
Like-named read-outs stand apart in the source and are kept apart here.

Key:
[1] = molecular target: T1, rat brain N-type calcium channel subunits (α1B+α2δ+β1b cDNA subunits) (Rattus norvegicus, UniProt Q02294); test: N-type calcium channel block, whole cell patch clamp in HEK 293 cells; assay type: cell-based; settings: holding potential −80 mV to +10 mV, 5 mM BaCl2
T1 construct: expressed in transfected cells; host or cells: HEK 293
From the text: (§1) Normalized dose-response curves were fit (Sigmaplot 4.0, SPSS Inc., Chicago, Ill.) by the Hill equation to determine IC50 values. Steady-state inactivation curves were plotted as the normalized test pulse amplitude following 5 s inactivating prepulses at +10 mV increments. Inactivation curves were fit (Sigmaplot 4.0) with the Boltzman equation, Ipeak (normalized)=1/(1+exp((V-Vh)z/25.6)), where V and Vh are the conditioning and half inactivation potentials, respectively, and z is the slope factor.
The methods of Example 11 were followed with slight modifications as will be apparent from the description below.
N-type calcium channel blocking activity was assayed in human embryonic kidney cells, HEK 293, stably transfected with the rat brain N-type calcium channel subunits (α1B+α2δ+β1b cDNA subunits). Briefly, cells were cultured in Dulbecco's modified eagle medium (DMEM) supplemented with 10% fetal bovine serum, 200 U/ml penicillin and 0.2 mg/ml streptomycin at 37° C. with 5% CO2. At 85% confluency, cells were split with 0.25% trypsin/1 mM EDTA and plated at 10% confluency on glass coverslips. At 12 hours the medium was. replaced and the cells transfected using a standard calcium phosphate protocol and the appropriate calcium channel cDNAs. Fresh DMEM was supplied and the cells transferred to 28° C./5% CO2. Cells were incubated for 1 to 2 days to whole cell recording.
Whole cell patch clamp experiments were performed using an Axopatch 200B amplifier (Axon Instruments, Burlingame, Calif.) linked to a personal computer equipped with pCLAMP software. The external and internal recording solutions contained, respectively, 5 mM BaCl2, 10 mM MgCl2, 10 mM HEPES, 40 mM TEACl, 10 mM glucose, 87.5 mM CsCl (pH 7.2) and 108 mM CsMS, 4 mM MgCl2, 9 mM EGTA, 9 mM HEPES (pH 7.2). Currents were typically elicited from a holding potential of −80 mV to +10 mV using Clampex software (Axon Instruments). Typically, currents were first elicited with low frequency stimulation (0.067 Hz) and allowed to stabilize prior to application of the compounds. The compounds were then applied during the low frequency pulse trains for two to three minutes to assess tonic block, and subsequently the pulse frequency was increased to 0.2 Hz to assess frequency dependent block. Data were analyzed using Clampfit (Axon Instruments) and SigmaPlot 4.0 (Jandel Scientific).

[2] = system: rat formalin model (paw flinches); test: Formalin-induced pain model; assay type: in vivo; settings: 30 mg/kg IP, 10 minutes prior to formalin, saline control=100%
Procedure: […] The compounds were reconstituted to stock solutions of approximately 10 mg/ml in propylene glycol. Eight Holtsman male rats of 275-375 g size were randomly selected per test article.
The following study groups in Table 6 were used, with test article, vehicle control (propylene glycol) and saline delivered intraperitoneally (IP):
Prior to initiation of drug delivery, baseline behavioral and testing data were taken.
On the morning of testing, a small metal band (0.5 g) was loosely placed around the right hind paw. The rat was placed in a cylindrical Plexiglas chamber for adaptation a minimum of 30 minutes. Test Article or Vehicle Control Article was administered 10 minutes prior to formalin injection (50 μl of 5% formalin) into the dorsal surface of the right hindpaw of the rat. The animal was then placed into the chamber of the automated formalin apparatus where movement of the formalin injected paw was monitored and the number of paw flinches tallied by minute over the next 60 minutes (Malmberg, A. B., supra).
Results are presented as Maximum Possible Effect±SEM, where saline control=100% (Table 7)

[3] = molecular target: T2, L-type channels (α1C+α2δ+β1b cDNA subunits) (Homo sapiens, UniProt Q13936); test: Selectivity for N-type over L-type channels, whole cell patch recordings in HEK 293 cells; assay type: cell-based
T2 construct: expressed in transfected cells; host or cells: HEK 293 (human embryonic kidney cells)
Procedure: (§2) Calcium channel blocking activity was measured using whole cell patch recordings on human embryonic kidney cells transiently expressing rat α1B+α2δ+β1b channels (N-type channels) with 5 mM barium as a charge carrier. Channel block was also measured in P/Q-type channels (α1A+α2δ+β1b cDNA subunits) and L-type channels (α1C+α2δ+β1b cDNA subunits).
(§3) HEK 293 Host cells (ATCC# CRL 1573) were grown in standard DMEM medium supplemented with 2 mM glutamine and 10% fetal bovine serum. HEK 293 cells were transfected by a standard calcium-phosphate-DNA coprecipitation method using the rat α1B+β1b+α2δ N-type calcium channel subunits in a vertebrate expression vector (for example, see Current Protocols in Molecular Biology).
(§4) After an incubation period of 24 to 72 hours, the culture medium was removed and replaced with external recording solution (see below). Whole cell patch clamp experiments were performed using an Axopatch 200B amplifier (Axon Instruments, Burlingame, Calif.) linked to an IBM compatible personal computer equipped with pCLAMP software. Borosilicate glass patch pipettes (Sutter Instrument Co., Novato, Calif.) were polished (Microforge, Narishige, Japan) to a resistance of about 4 MΩ when filled with cesium methanesulfonate internal solution (composition in MM: 109 CsCH3 SO4, 4 MgCl2, 9 EGTA, 9 HEPES, pH 7.2). Cells were bathed in 5 mM Ba^++ (in mM: 5 BaCl2, 1 MgCl2, 10 HEPES, 40 tetraethylammonium chloride, 10 glucose, 87.5 CsCl pH 7.2). Current data shown were elicited by a train of 100 ms test pulses at 0.066 Hz from −100 mV and/or −80 mV to various potentials (min. −20 mV, max. +30 mV). Drugs were perfused directly into the vicinity of the cells, using a microperfusion system.
as §1
(§5) The same protocol was followed for cell lines expressing P/Q-type channels and L-type channels.

[4] = molecular target: T3, P/Q-type channels (α1A+α2δ+β1b cDNA subunits) (Homo sapiens, UniProt O00555); test: Selectivity for N-type over P/Q-type channels, whole cell patch recordings in HEK 293 cells; assay type: cell-based
T3 construct: expressed in transfected cells; host or cells: HEK 293 (human embryonic kidney cells)
T3 sequence (O00555 whole entry): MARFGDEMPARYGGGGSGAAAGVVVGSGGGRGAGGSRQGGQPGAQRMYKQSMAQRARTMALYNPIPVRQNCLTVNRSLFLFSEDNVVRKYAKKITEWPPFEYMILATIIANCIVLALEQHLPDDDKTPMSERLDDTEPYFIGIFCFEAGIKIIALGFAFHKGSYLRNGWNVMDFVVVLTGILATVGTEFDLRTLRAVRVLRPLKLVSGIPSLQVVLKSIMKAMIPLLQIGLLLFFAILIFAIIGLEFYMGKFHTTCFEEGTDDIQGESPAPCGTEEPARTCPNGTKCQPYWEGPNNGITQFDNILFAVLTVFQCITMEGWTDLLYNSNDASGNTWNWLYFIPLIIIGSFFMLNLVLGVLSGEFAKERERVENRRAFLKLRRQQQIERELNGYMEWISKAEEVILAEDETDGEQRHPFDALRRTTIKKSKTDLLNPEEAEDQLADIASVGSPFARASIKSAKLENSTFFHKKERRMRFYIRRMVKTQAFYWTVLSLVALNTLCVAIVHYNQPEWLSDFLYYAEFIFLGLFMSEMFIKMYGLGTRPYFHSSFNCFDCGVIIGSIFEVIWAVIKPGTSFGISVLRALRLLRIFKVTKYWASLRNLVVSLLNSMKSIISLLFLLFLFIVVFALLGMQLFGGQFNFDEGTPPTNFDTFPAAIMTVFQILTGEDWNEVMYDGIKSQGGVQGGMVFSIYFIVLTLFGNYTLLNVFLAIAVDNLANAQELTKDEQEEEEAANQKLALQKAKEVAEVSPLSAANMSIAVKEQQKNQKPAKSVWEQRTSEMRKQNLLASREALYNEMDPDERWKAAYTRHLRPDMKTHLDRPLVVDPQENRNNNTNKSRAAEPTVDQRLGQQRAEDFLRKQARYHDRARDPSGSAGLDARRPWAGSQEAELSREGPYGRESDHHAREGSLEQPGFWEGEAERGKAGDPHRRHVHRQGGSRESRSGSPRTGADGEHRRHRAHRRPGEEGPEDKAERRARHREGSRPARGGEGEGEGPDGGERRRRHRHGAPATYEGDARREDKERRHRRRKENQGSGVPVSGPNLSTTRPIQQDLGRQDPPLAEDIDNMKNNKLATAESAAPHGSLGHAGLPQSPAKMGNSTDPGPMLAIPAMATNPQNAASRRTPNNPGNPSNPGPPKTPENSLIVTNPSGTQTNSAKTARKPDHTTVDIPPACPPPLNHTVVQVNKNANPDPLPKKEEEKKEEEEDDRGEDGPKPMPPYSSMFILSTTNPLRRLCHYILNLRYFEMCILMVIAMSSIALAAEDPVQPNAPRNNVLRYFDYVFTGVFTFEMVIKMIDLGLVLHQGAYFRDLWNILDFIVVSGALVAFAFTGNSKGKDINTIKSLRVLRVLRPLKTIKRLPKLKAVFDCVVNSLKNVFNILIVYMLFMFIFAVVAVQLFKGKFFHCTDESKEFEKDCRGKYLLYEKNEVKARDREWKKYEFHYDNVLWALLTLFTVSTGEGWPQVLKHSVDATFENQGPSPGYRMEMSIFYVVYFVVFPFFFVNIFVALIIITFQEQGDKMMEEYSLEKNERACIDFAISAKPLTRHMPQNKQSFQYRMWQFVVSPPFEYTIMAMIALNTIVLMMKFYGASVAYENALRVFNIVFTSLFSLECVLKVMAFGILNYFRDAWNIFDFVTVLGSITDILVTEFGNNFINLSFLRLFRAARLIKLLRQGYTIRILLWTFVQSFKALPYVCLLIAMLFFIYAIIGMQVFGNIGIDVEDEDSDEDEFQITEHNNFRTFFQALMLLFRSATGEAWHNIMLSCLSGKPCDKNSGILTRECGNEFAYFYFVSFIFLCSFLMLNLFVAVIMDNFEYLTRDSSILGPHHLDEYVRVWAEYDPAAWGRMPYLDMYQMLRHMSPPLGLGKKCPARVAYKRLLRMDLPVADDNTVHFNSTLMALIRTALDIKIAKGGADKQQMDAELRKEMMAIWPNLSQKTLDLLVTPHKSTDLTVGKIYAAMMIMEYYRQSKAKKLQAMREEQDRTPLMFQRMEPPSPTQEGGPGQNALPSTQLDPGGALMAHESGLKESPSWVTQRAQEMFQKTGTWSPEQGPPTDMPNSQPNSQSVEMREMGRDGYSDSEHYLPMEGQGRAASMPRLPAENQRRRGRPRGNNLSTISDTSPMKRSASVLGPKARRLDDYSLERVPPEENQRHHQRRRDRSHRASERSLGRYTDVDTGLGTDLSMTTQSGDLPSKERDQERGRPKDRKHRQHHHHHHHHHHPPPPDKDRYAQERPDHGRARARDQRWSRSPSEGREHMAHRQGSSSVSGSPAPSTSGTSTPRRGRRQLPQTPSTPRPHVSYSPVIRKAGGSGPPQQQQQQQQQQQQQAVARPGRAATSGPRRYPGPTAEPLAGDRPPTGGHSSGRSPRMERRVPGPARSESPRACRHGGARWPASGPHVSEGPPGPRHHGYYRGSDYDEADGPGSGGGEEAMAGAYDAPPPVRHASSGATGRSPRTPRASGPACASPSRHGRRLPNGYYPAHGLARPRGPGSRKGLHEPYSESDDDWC
T3 sequence (P54289 25-956 partner limits assumed): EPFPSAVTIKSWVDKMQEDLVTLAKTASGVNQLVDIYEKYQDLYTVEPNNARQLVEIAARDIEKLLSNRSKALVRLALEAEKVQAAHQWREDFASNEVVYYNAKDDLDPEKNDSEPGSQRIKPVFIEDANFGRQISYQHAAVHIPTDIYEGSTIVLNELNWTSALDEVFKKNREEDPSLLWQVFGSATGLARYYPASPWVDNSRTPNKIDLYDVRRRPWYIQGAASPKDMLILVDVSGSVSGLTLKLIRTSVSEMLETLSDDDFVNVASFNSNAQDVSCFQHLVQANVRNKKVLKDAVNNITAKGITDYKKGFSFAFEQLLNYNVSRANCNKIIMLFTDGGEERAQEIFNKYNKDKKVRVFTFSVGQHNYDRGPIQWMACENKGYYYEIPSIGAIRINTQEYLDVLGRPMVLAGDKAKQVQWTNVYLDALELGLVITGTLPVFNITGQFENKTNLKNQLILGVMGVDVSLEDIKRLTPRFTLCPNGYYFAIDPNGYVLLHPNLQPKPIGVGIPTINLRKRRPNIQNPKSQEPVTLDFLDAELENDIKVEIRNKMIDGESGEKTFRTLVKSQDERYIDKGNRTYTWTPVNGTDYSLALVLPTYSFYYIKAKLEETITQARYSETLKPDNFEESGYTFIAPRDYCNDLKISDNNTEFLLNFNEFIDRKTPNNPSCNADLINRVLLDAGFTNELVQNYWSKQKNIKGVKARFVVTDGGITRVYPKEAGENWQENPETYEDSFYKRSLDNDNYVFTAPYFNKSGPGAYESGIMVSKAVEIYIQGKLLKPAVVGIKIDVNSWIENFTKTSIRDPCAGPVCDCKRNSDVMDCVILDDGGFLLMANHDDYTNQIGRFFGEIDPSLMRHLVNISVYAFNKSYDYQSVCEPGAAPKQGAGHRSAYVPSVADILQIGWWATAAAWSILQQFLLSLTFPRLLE
T3 sequence (P54289 957-1103 partner limits assumed): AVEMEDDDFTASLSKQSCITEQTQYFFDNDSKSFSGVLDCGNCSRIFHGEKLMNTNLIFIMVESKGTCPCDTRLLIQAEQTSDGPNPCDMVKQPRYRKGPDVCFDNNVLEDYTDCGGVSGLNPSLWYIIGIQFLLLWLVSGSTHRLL
T3 sequence (Q02641 whole entry partner): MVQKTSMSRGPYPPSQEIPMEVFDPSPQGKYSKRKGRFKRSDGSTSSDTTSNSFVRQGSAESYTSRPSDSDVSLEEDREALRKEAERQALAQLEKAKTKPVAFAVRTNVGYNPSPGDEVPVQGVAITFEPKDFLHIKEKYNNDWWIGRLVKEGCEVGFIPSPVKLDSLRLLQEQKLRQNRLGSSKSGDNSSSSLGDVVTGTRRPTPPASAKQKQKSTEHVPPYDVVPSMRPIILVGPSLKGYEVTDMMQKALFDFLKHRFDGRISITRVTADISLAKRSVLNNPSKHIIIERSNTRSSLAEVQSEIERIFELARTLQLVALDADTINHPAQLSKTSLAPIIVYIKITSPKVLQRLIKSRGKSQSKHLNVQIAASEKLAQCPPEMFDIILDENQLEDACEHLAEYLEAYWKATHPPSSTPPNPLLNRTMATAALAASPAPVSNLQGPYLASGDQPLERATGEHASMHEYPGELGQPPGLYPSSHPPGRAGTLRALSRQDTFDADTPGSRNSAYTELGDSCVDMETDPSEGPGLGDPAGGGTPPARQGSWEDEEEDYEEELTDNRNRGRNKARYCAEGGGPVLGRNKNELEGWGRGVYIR
Procedure: as §2, §3, §4, §1, §5

[5] = molecular target: T4, human α1G T-type channels (Homo sapiens, UniProt O43497); test: Block of α1G T-type channels, whole-cell patch clamp in HEK cells; assay type: cell-based; settings: test pulse −40 mV
T4 construct: expressed in transfected cells
Procedure: Standard patch-clamp techniques were employed to identify blockers of T-type currents. Briefly, previously described HEK cell lines stably expressing human α1G T-type channels were used for all the recordings (passage #: 4-20, 37° C., 5% CO2). To obtain T-type currents, plastic dishes containing semi-confluent cells were positioned on the stage of a ZEISS AXIOVERT S100 microscope after replacing the culture medium with external solution (Table 3). Whole-cell patches were obtained using pipettes (borosilicate glass with filament, O.D.: 1.5 mm, I.D.: 0.86 mm, 10 cm length), fabricated on a SUTTER P-97 puller with resistance values of ˜5 MΩ (Table 4 ).
T-type currents were reliably obtained by using two voltage protocols: “non-inactivating”, and “inactivation”. In the non-inactivating protocol, the holding potential is set at −110 mV and with a pre-pulse at −100 mV for 1 second prior to the test pulse at −40 mV for 50 ms. In the inactivation protocol, the pre-pulse is at approximately −85 mV for 1 second, which inactivates about ^15% of the T-type channels.
Test compounds were dissolved in external solution, 0.1-0.01% DMSO. After ˜10 min rest, they were applied by gravity close to the cell using a WPI microfil tubing. The “non-inactivated” pre-pulse was used to examine the resting block of a compound. The “inactivated” protocol was employed to study voltage-dependent block. However, the initial data shown below were mainly obtained using the non-inactivated protocol only. IC50 values are shown for various compounds of the invention in Table 5.

[6] = system: T-type over L-type channels; settings: cited from earlier work
[7] = frequency dependent block, pulse frequency 0.2 Hz, read-out: IC50 at 0.2 Hz
[8] = tonic block, low frequency stimulation 0.067 Hz, read-out: IC50 at 0.067 Hz
[9] = −80 mV (inactivation protocol), read-out: IC50 at −80 mV
[10] = −100 mV (non-inactivating protocol), read-out: IC50 at −100 mV

Row | Molecule | IC50 [1, 7] | IC50 [1, 8] | Maximum Possible Effect ± SEM, Phase I [2] | Maximum Possible Effect ± SEM, Phase II [2] | Maximum Possible Effect ± SEM, Phase IIA [2] | selectivity for N-type over L-type channels [3] | selectivity for N-type over P/Q-type channels [4] | IC50 [5, 9] | IC50 [5, 10] | selective for T-type over L-type channels [6]
1 | COc1c(C(C)(C)C)cc(C(=O)N(C)[C@@H]2CCN(C(=O)CCCCC(c3ccc(F)cc3)c3ccc(F)cc3)C2)cc1C(C)(C)C [Compound P1, (R)—N-{1-[6,6-Bis-(4-fluoro-phenyl)-hexanoyl]-pyrrolidin-3-yl}-3,5-di-tert-butyl-4-methoxy-N-methyl-benzamide] | 91 nM | 120 nM | 94 ± 11% | 79 ± 14% | 72 ± 16% | ~75 fold | approximately 23 fold | 8 nM |  | 
2 | COc1c(C(C)(C)C)cc(C(=O)N(C)[C@H]2CCN(C(=O)CCCCC(c3ccc(F)cc3)c3ccc(F)cc3)C2)cc1C(C)(C)C [Compound P4, (S)-N-{1-[6,6-Bis-(4-fluoro-phenyl)-hexanoyl]-pyrrolidin-3-yl}-3,5-di-tert-butyl-4-methoxy-N-methyl-benzamide] | 62 nM | 93 nM | 50 ± 10% | 51 ± 10% | 42 ± 13% | greater than 5000 fold | approximately 12 fold | 390 nM | 230 nM | 
3 | COCC(=O)O[C@]1(CCN(C)CCCc2nc3ccccc3[nH]2)CCc2cc(F)ccc2[C@@H]1C(C)C [Mibefradil] |  |  |  |  |  |  |  |  |  | 10-30 fold
4 | (R)-6,6-Bis-(4-fluoro-phenyl)-hexanoic acid[1-(3,5-di-tert-butyl-4-methoxy-benzoyl)-pyrrolidin-3-yl]-methyl-amide [Compound P2] | 32 nM | 67 nM | 70 ± 8% | 82 ± 9% | 71 ± 12% | greater than 1000 fold | approximately 9 fold | 51 nM | 117 nM | 
5 | (S)-6,6-Bis-(4-fluoro-phenyl)-hexanoic acid[1-(3,5-di-tert-butyl-4-methoxy-benzoyl)-pyrrolidin-3-yl]-methyl-amide [Compound P5] | 29 nM | 45 nM | 88 ± 13% | 62 ± 4% | 47 ± 5% | greater than 2000 fold | approximately 31 fold | 13 nM | 73 nM | 
